Test results from patent publication US20230000808A1, “COMPOSITIONS AND METHODS EXCLUDING OR WITH REDUCED GLUTAMINE FOR THE TREATMENT OF HEMOGLOBINOPATHIES AND THALASSEMIAS” (AXCELLA HEALTH INC., priority 2019, published 2023).

Legend:
[1] = system: TNFα; assay: LPS-induced TNF-α secretion in primary human monocyte-derived macrophages (ELISA); format: cell-based; details: for TNF-α Measurements Mean: baseline subtracted; for effect on LPS-induced TNF-α secretion: Two Way ANOVA Dunnett
Method: Primary human PMBC derived macrophages were seeded on day 0 at 3.0×10^4 cells per well in 96-well microplates (ThermoFisher) in Dulbecco's Modified Eagle Medium (DMEM) (Gibco) supplemented with penicillin-streptomycin (Hyclone) and 10% heat inactivated fetal bovine serum (HI-FBS) (Atlanta Bio) and incubated overnight at 37° C., 5% CO2. On day 1, cells were washed once with 150 μl per well DPBS (Gibco) and treated with 75 μl of: • a. […] The same medium described above with one amino acid at various concentrations including complete dropout. […] On day 3, the supernatant was collected and immediately frozen in −80° C. freezer. Cells were washed once with 150 μl DPBS and viability was assessed using the WST-8 Cell Proliferation Cytotoxicity Assay (Dojindo). […] Protein levels in supernatant samples were analyzed by ELISA for IL-6 and TNFα using commercially available kits (R&D Systems) according to manufacturer-supplied protocols.

[2] = system: IL-6; assay: Secreted IL-6 in HLMVEC treated with TNF-α (FirePlex); format: cell-based, human
How it was run: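 Primary human lung microvascular endothelial cells, after overnight attachment, were switched to medium with amino acid levels mimicking SCD patient blood, plus 0.5 ng/mL TNF-α with or without amino acid treatments at 20× mean physiological plasma concentrations. Supernatant IL-6 measured by FirePlex immunoassay, interpolated from a standard curve.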

[3] = system: VCAM-1; assay: VCAM-1 cell integrated intensity in HLMVEC treated with TNF-α (immunofluorescence); format: cell-based, human; details: for VCAM-1 expression in HLMVEC: 0.5 ng/mL TNF-α, amino acids at 20× HMDB, 24 hours
How it was run: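 Primary human lung microvascular endothelial cells, 24 h in medium with SCD-like amino acid profile plus 0.5 ng/mL TNF-α, with or without amino acids at 20× mean plasma level. Fixed, immunostained for ICAM-1 and VCAM-1; integrated intensity per cell by high-content imaging.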

[4] = HLMVEC + 0.5 ng/mL TNF-α, 24 h, amino acids 20x HMDB, Nac/Cit/Car 5 mM as bracketed

In the case of `NC(=O)CC[C@H](N)C(=O)O` [Glutamine, L-glutamine], the “TNF-α Measurements Mean” value ([1]; Donor 1, Conc. 749 μM (baseline), LPS) is reported as 0, the “TNF-α Measurements Mean” value ([1]; Donor 1, Conc. 3747 μM, LPS) is reported as −45.7 and the “TNF-α Measurements Mean” value ([1]; Donor 1, Conc. 11242 μM, LPS) is reported as −65.24. The “TNF-α Measurements Mean” value ([1]; Donor 1, Conc. 22484 μM, LPS) was −103.07, the “TNF-α Measurements Mean” value ([1]; Donor 2, Conc. 749 μM (baseline), LPS) was −9.5E−15 and the “TNF-α Measurements Mean” value ([1]; Donor 2, Conc. 3747 μM, LPS) was 9.338. For the same compound, the “TNF-α Measurements Mean” value ([1]; Donor 2, Conc. 11242 μM, LPS) was 20.04, the “TNF-α Measurements Mean” value ([1]; Donor 2, Conc. 22484 μM, LPS) was 11.5 and the “effect on LPS-induced TNF-α secretion” value ([1]; Donor 2) was “increased”. The “TNF-α Measurements Mean” value ([1]; Donor 3, Conc. 749 μM (baseline), LPS) was 0, the “TNF-α Measurements Mean” value ([1]; Donor 3, Conc. 3747 μM, LPS) was 1.936 and the “TNF-α Measurements Mean” value ([1]; Donor 3, Conc. 11242 μM, LPS) was 18. For the same compound, the “TNF-α Measurements Mean” value ([1]; Donor 3, Conc. 22484 μM, LPS) was 29.14, the “effect on LPS-induced TNF-α secretion” value ([1]; Donor 3) was “increased” and the “IL-6 secretion from TNFα treated HLMVEC” value ([2]; 0.5 ng/mL TNF-α, amino acids at 20× HMDB, 24 hours) was “increased”. The “VCAM-1 expression in HLMVEC” value [3] was “increased”.
With `CC(=O)N[C@@H](CS)C(=O)O` [N-Acetyl Cysteine, N-acetylcysteine] the “TNF-α Measurements Mean” value ([1]; Donor 1, Conc. 5 X, LPS 0.15 ng/mL) was −326.24, the “TNF-α Measurements Mean” value ([1]; Donor 1, Conc. 10 X, LPS 0.15 ng/mL) was −446.88 and the “TNF-α Measurements Mean” value ([1]; Donor 1, Conc. 20 X, LPS 0.15 ng/mL) was −561.33. For the same compound, the “TNF-α Measurements Mean” value ([1]; Donor 1, Conc. 40 X, LPS 0.15 ng/mL) was −644.49, the “effect on LPS-induced TNF-α secretion” value ([1]; Donor 1) was “significantly reduced” and the “TNF-α Measurements Mean” value ([1]; Donor 2, Conc. 5 X, LPS 0.15 ng/mL) was −54.1596. For the same compound, the “TNF-α Measurements Mean” value ([1]; Donor 2, Conc. 10 X, LPS 0.15 ng/mL) was −70.8382, the “TNF-α Measurements Mean” value ([1]; Donor 2, Conc. 20 X, LPS 0.15 ng/mL) was −88.6528 and the “TNF-α Measurements Mean” value ([1]; Donor 2, Conc. 40 X, LPS 0.15 ng/mL) was −103.984. The “effect on LPS-induced TNF-α secretion” value ([1]; Donor 2) was “significantly reduced”, the “TNF-α Measurements Mean” value ([1]; Donor 3, Conc. 5 X, LPS 0.15 ng/mL) was −33.6246 and the “TNF-α Measurements Mean” value ([1]; Donor 3, Conc. 10 X, LPS 0.15 ng/mL) was −41.7266. For the same compound, the “TNF-α Measurements Mean” value ([1]; Donor 3, Conc. 20 X, LPS 0.15 ng/mL) was −48.4373, the “TNF-α Measurements Mean” value ([1]; Donor 3, Conc. 40 X, LPS 0.15 ng/mL) was −55.3093 and the “effect on LPS-induced TNF-α secretion” value ([1]; Donor 3) was “significantly reduced”. For the same compound, the “Secreted IL6 Median” value [2, 4] was −0.497, the “VCAM-1 expression in HLMVEC” value [3] was “greatly reduced” and the “VCAM-1 Cell Integrated Intensity Median” value [3, 4] was −0.315.
